Several values for one entry are separate records, joined by “and”; a condition that tells them apart may be missing. Identical values can stand only once. Like-named read-outs stand apart in the source and are kept apart here.
Experiments:
[1] = female, DBA-1J, mouse, in vivo
Flu A H7N9 (High Path) = experiment: microbe, parasite or virus in culture; format: cell-based; details: Influenza A virus, H7N9, MDCK, MDCK cells
[2] = Cytotoxicity (CC50) run with antiviral assays, BHK cells; format: cell-based; details: hamster, Flaviviridae table
Method: Four-concentration CPE inhibition assays are performed. Confluent or near-confluent cell culture monolayers in 96-well disposable microplates are prepared. Cells are maintained in MEM or DMEM supplemented with FBS as required for each cell line. For antiviral assays the same medium is used but with FBS reduced to 2% or less and supplemented with 50 μg/mL gentamicin. The test compound is prepared at four log10 final concentrations, usually 0.1, 1.0, 10, and 100 μg/mL or μM. The virus control and cell control wells are on every microplate. In parallel, a known active drug is tested as a positive control drug using the same method as is applied for test compounds. The positive control is tested with each test run. The assay is set up by first removing growth media from the 96-well plates of cells. Then the test compound is applied in 0.1 mL volume to wells at 2× concentration. […] The dye content in each well is quantified using a 96-well spectrophotometer at 540 nm wavelength. […]
This assay involves similar methodology to what is described in the previous paragraphs using 96-well microplates of cells. […] The incorporated dye content is quantified as described above. […] Compounds observed to be active above are further evaluated by VYR assay. […] Wells are scored for presence or absence of virus after distinct CPE (measured by neutral red uptake) is observed. […]

in vivo [3] = details: ICR (CD-1), mouse, 180 mg/kg
VEEV = experiment: microbe, parasite or virus in culture; format: cell-based; details: Venezuelan equine encephalitis virus
MERS = experiment: microbe, parasite or virus in culture; format: cell-based, MERS coronavirus; details: Middle East respiratory syndrome-related coronavirus, Vero C1008
[4] = Plasma pharmacokinetics in dogs after a single dose of EIDD-2800; details: dog, 140 mg/kg
[5] = Cytotoxicity (CC50) run with antiviral assays, HeLa-Ohio cells; details: human
in vivo [6] = details: female, DBA-1J, mouse, po
POWV = experiment: microbe, parasite or virus in culture; format: cell-based; details: Powassan virus, BHK, BHK cells
DENV2 = experiment: microbe, parasite or virus in culture; format: cell-based; details: Dengue virus
Flu A H5N1 (High Path) = experiment: microbe, parasite or virus in culture; format: cell-based; details: Influenza A virus, H5N1, MDCK, MDCK cells
RSV = experiment: microbe, parasite or virus in culture; format: cell-based, respiratory syncytial virus
Enterovirus-71 = format: cell-based
SARS = experiment: microbe, parasite or virus in culture; format: cell-based, SARS coronavirus; details: Severe acute respiratory syndrome coronavirus
NV = experiment: microbe, parasite or virus in culture; format: cell-based; details: Norovirus, HG23
ZIKV = experiment: microbe, parasite or virus in culture; format: cell-based; details: Zika virus, Vero 76
WEEV = experiment: microbe, parasite or virus in culture; format: cell-based; details: Western equine encephalitis virus
[7] = tested on: Lymphocytic choriomeningitis virus; experiment: microbe, parasite or virus in culture; format: cell-based; details: Mammarenavirus choriomeningitidis, Vero

O=c1nc(NO)ccn1C1OC(CO)C(O)C1O (stereo not drawn) [EIDD-1931, 1-(3,4-dihydroxy-5-(hydroxymethyl)tetrahydrofuran-2-yl)-4-(hydroxyamino)pyrimidin-2-one]
Bioavailability (versus i.p. delivery) [1]: 39-46%
Bioavailability (versus i.p. delivery) ([1]; 30 mg/kg): 65%
plasma T1/2 ([1]; iv): 2.2 h
EC50 (Flu A H7N9 (High Path)): > 48 µM
CC50 [2]: 30 µM
half-life (in vivo [3]): 1.86 h
EC90 (VEEV; Vero 76): 0.8 µM
EC50 (VEEV; Vero 76, VEEV, Vero76 cells): 1.28 µM
EC50 (VEEV; Vero, VEE virus, Vero cell cytopathic effect (CPE) model): 1 µM
EC50 (MERS): < 0.8 µM
EC90 (MERS): < 0.8 µM
AUC(0-inf) [4]: 498 ± 40.4 µM·h
tmax [4]: 1.4 ± 0.5 h
CC50 [5]: > 40 µM
half-life (in vivo [6]): 4.1 to 4.7 h
Cmax (in vivo [6]; 30 mg/kg): 3000 ng/mL
Cmax (in vivo [6]; 100 mg/kg): 7700 ng/mL
Cmax (in vivo [6]; 300 mg/kg): 11700 ng/mL
tmax (in vivo [6]; 300 mg/kg): 0.25 to 0.5 h
EC50 (POWV): 11.2 µM
EC50 (DENV2; DENV2, Vero 76): 14 µM
EC50 (DENV2; DENV2, Vero 76, DENV2, Vero76 cells): 12.8 µM
EC50 (Flu A H5N1 (High Path)): > 88 µM
EC50 (RSV): 27.6 µM
EC50 (RSV; human respiratory syncytial virus, MA104): 14 µM
EC50 (Enterovirus-71): 3.44 µM and 3.36 µM
EC90 (SARS; Vero 76): 0.56 µM
EC90 (SARS; Vero C1008): < 0.8 µM
EC50 (SARS; Vero C1008, SARS, Vero E6 cells): < 0.8 µM
EC50 (NV): > 100 µM
EC90 (NV): > 100 µM
EC90 (ZIKV): 2.36 µM
EC90 (WEEV; Vero 76): < 1.28 µM
EC50 (WEEV; Vero 76, WEEV, Vero76 cells): 1.28 µM
EC50 (WEEV; Vero, WEE virus, Vero cell cytopathic effect (CPE) model): 1.36 µM
EC90 [7]: 25.2 µM

Reference: patent US11903959B2 (EMORY UNIVERSITY, priority 2017, dated 2024)
